# Measurements published in PubChem BioAssay (NCI).
#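 Cultured in 96-well plates, cells were exposed to test compound for 48 hours across five concentrations. TGI is the concentration that stops growth completely.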
# Tests used:
# Test in all cases: inhibition of tumour cell growth, NCI panel, 48 h
# UACC-257 melanoma = system: UACC-257 melanoma
# HL-60(TB) leukemia = system: HL-60(TB) leukemia
# NCI-H522 lung = system: NCI-H522 lung
# NCI-H460 lung = system: NCI-H460 lung
# UO-31 renal = system: UO-31 renal
# RPMI-8226 leukemia = system: RPMI-8226 leukemia
# U251 CNS = system: U251 CNS
# RXF-631 renal = system: RXF-631 renal
# DMS 114 small cell lung = system: DMS 114 small cell lung
# KM12 colon = system: KM12 colon
# HT29 colon = system: HT29 colon
# DMS 273 small cell lung = system: DMS 273 small cell lung
# NCI-H226 lung = system: NCI-H226 lung
# HCT-116 colon = system: HCT-116 colon
# M14 melanoma = system: M14 melanoma
# SK-MEL-5 melanoma = system: SK-MEL-5 melanoma
# MOLT-4 leukemia = system: MOLT-4 leukemia
# M19-MEL melanoma = system: M19-MEL melanoma
# SF-539 CNS = system: SF-539 CNS
# SW-620 colon = system: SW-620 colon
# IGROV1 ovarian = system: IGROV1 ovarian
# OVCAR-5 ovarian = system: OVCAR-5 ovarian
# COLO 205 colon = system: COLO 205 colon
# TK-10 renal = system: TK-10 renal
# KM20L2 colon = system: KM20L2 colon
# A498 renal = system: A498 renal
# DLD-1 colon = system: DLD-1 colon
# HCT-15 colon = system: HCT-15 colon
# K-562 leukemia = system: K-562 leukemia
# SNB-75 CNS = system: SNB-75 CNS
# SK-OV-3 ovarian = system: SK-OV-3 ovarian
# SR leukemia = system: SR leukemia
# SK-MEL-2 melanoma = system: SK-MEL-2 melanoma
# OVCAR-8 ovarian = system: OVCAR-8 ovarian
# NCI-H23 lung = system: NCI-H23 lung
# ACHN renal = system: ACHN renal
# CAKI-1 renal = system: CAKI-1 renal
# HOP-62 NSCLC = system: HOP-62 NSCLC
# SK-MEL-28 melanoma = system: SK-MEL-28 melanoma
# SNB-78 CNS = system: SNB-78 CNS
# OVCAR-4 ovarian = system: OVCAR-4 ovarian
# SF-268 CNS = system: SF-268 CNS
# HOP-92 NSCLC = system: HOP-92 NSCLC
# SNB-19 CNS = system: SNB-19 CNS
# LXFL 529 NSCLC = system: LXFL 529 NSCLC
# UACC-62 melanoma = system: UACC-62 melanoma
# SN12C renal = system: SN12C renal
# LOX IMVI melanoma = system: LOX IMVI melanoma
# SF-295 CNS = system: SF-295 CNS
# HCC-2998 colon = system: HCC-2998 colon
# EKVX NSCLC = system: EKVX NSCLC
# RXF 393 renal = system: RXF 393 renal
# CCRF-CEM leukemia = system: CCRF-CEM leukemia
# A549 NSCLC = system: A549 NSCLC
# OVCAR-3 ovarian = system: OVCAR-3 ovarian
# MALME-3M melanoma = system: MALME-3M melanoma
# XF 498 CNS = system: XF 498 CNS
# 786-0 renal = system: 786-0 renal
# HOP-18 NSCLC = system: HOP-18 NSCLC
compound,measurement,setting,value
O=C(Nc1ccc([N+](=O)[O-])cc1[N+](=O)[O-])C(=O)C(C(=O)c1ccc2ccccc2c1)C1OC(=O)c2ccccc21 (configuration not stated),TGI,UACC-257 melanoma,58 µM
same,TGI,HL-60(TB) leukemia,35 µM
same,TGI,NCI-H522 lung,22.8 µM
same,TGI,NCI-H460 lung,28.9 µM
same,TGI,UO-31 renal,27.7 µM
same,TGI,RPMI-8226 leukemia,68.6 µM
same,TGI,U251 CNS,16.9 µM
same,TGI,RXF-631 renal,66.3 µM
same,TGI,DMS 114 small cell lung,45.1 µM
same,TGI,KM12 colon,40.3 µM
same,TGI,HT29 colon,36.4 µM
same,TGI,DMS 273 small cell lung,61.4 µM
same,TGI,NCI-H226 lung,9.48 µM
same,TGI,HCT-116 colon,32 µM
same,TGI,M14 melanoma,30.3 µM
same,TGI,SK-MEL-5 melanoma,31.6 µM
same,TGI,MOLT-4 leukemia,62.2 µM
same,TGI,M19-MEL melanoma,29.6 µM
same,TGI,SF-539 CNS,18.6 µM
same,TGI,SW-620 colon,30.9 µM
same,TGI,IGROV1 ovarian,43.5 µM
same,TGI,OVCAR-5 ovarian,58.2 µM
same,TGI,COLO 205 colon,35 µM
same,TGI,TK-10 renal,61.7 µM
same,TGI,KM20L2 colon,61.9 µM
same,TGI,A498 renal,52.7 µM
same,TGI,DLD-1 colon,81.4 µM
same,TGI,HCT-15 colon,30.7 µM
same,TGI,K-562 leukemia,38.8 µM
same,TGI,SNB-75 CNS,50.7 µM
same,TGI,SK-OV-3 ovarian,42.1 µM
same,TGI,SR leukemia,16.7 µM
same,TGI,SK-MEL-2 melanoma,43.4 µM
same,TGI,OVCAR-8 ovarian,21.6 µM
same,TGI,NCI-H23 lung,26 µM
same,TGI,ACHN renal,73.2 µM
same,TGI,CAKI-1 renal,54 µM
same,TGI,HOP-62 NSCLC,68.4 µM
same,TGI,SK-MEL-28 melanoma,48 µM
same,TGI,SNB-78 CNS,82.5 µM
same,TGI,OVCAR-4 ovarian,60.3 µM
same,TGI,SF-268 CNS,43.1 µM
same,TGI,HOP-92 NSCLC,55.6 µM
same,TGI,SNB-19 CNS,33 µM
same,TGI,LXFL 529 NSCLC,26 µM
same,TGI,UACC-62 melanoma,30.2 µM
same,TGI,SN12C renal,54.7 µM
same,TGI,LOX IMVI melanoma,37.6 µM
same,TGI,SF-295 CNS,55.1 µM
same,TGI,HCC-2998 colon,25 µM
same,TGI,EKVX NSCLC,48 µM
same,TGI,RXF 393 renal,27.3 µM
same,TGI,CCRF-CEM leukemia,32.4 µM
same,TGI,A549 NSCLC,61.7 µM
O=S(=O)(c1ccccc1)N1N=C2c3ccccc3CCC[C@H]2C1c1ccccc1 (some centres not stated),TGI,UACC-257 melanoma,> 100 µM
same,TGI,HL-60(TB) leukemia,> 100 µM
same,TGI,NCI-H522 lung,> 100 µM
same,TGI,NCI-H460 lung,> 100 µM
same,TGI,UO-31 renal,> 100 µM
same,TGI,RPMI-8226 leukemia,> 100 µM
same,TGI,U251 CNS,> 100 µM
same,TGI,DMS 114 small cell lung,> 100 µM
same,TGI,KM12 colon,> 100 µM
same,TGI,HT29 colon,> 100 µM
same,TGI,DMS 273 small cell lung,> 100 µM
same,TGI,NCI-H226 lung,> 100 µM
same,TGI,HCT-116 colon,> 100 µM
same,TGI,M14 melanoma,> 100 µM
same,TGI,SK-MEL-5 melanoma,> 100 µM
same,TGI,MOLT-4 leukemia,> 100 µM
same,TGI,M19-MEL melanoma,> 100 µM
same,TGI,SF-539 CNS,> 100 µM
same,TGI,OVCAR-3 ovarian,> 100 µM
same,TGI,SW-620 colon,> 100 µM
same,TGI,IGROV1 ovarian,> 100 µM
same,TGI,OVCAR-5 ovarian,> 100 µM
same,TGI,COLO 205 colon,> 100 µM
same,TGI,TK-10 renal,> 100 µM
same,TGI,KM20L2 colon,> 100 µM
same,TGI,A498 renal,> 100 µM
same,TGI,DLD-1 colon,> 100 µM
same,TGI,HCT-15 colon,> 100 µM
same,TGI,K-562 leukemia,> 100 µM
same,TGI,MALME-3M melanoma,> 100 µM
same,TGI,SNB-75 CNS,> 100 µM
same,TGI,XF 498 CNS,> 100 µM
same,TGI,SK-OV-3 ovarian,> 100 µM
same,TGI,SR leukemia,> 100 µM
same,TGI,SK-MEL-2 melanoma,> 100 µM
same,TGI,OVCAR-8 ovarian,> 100 µM
same,TGI,NCI-H23 lung,> 100 µM
same,TGI,ACHN renal,> 100 µM
same,TGI,CAKI-1 renal,> 100 µM
same,TGI,786-0 renal,> 100 µM
same,TGI,HOP-62 NSCLC,> 100 µM
same,TGI,SK-MEL-28 melanoma,> 100 µM
same,TGI,SNB-78 CNS,> 100 µM
same,TGI,OVCAR-4 ovarian,> 100 µM
same,TGI,SF-268 CNS,> 100 µM
same,TGI,HOP-92 NSCLC,> 100 µM
same,TGI,SNB-19 CNS,> 100 µM
same,TGI,HOP-18 NSCLC,> 100 µM
same,TGI,LXFL 529 NSCLC,> 100 µM
same,TGI,UACC-62 melanoma,> 100 µM
same,TGI,SN12C renal,> 100 µM
same,TGI,LOX IMVI melanoma,> 100 µM
same,TGI,SF-295 CNS,> 100 µM
same,TGI,HCC-2998 colon,> 100 µM
same,TGI,EKVX NSCLC,> 100 µM
same,TGI,RXF 393 renal,> 100 µM
same,TGI,CCRF-CEM leukemia,> 100 µM
same,TGI,A549 NSCLC,> 100 µM
